Source: patent US20240207288A1, “METHODS OF TREATING ESOPHAGEAL STRICTURES” (Ellodi Pharmaceuticals, L.P., priority 2021, published 2024)

What was measured:
[1] = test system: subjects with strictures and/or rings and EoE; experiment: Clinical trial of FP ODT: histologic response (peak eosinophils/HPF in oesophageal biopsies); assay type: in vivo, human; conditions: subgroup with strictures and/or Grade 2 rings at baseline, Week 12
Experimental: (§1) A clinical trial was performed to evaluate the effect of an orally disintegrating tablet (“ODT”) comprising fluticasone propionate (FP). A randomised, double-blind, placebo-controlled, multicentre, dose-ranging, and maintenance study of FP in subjects (>18 and <75 years of age) with strictures and/or rings and EoE. The trial examined four doses of FP to define the exposure-response of FP and the minimum effective dose to minimize significant hypothalamic-pituitary-adrenal (HPA) axis effects. The study (as shown in FIG. 1) was designed as follows. • (a) Screening: Patients with a confirmed diagnosis or presumptive diagnosis of EoE (including identifying strictures and/or rings) were selected for the study. An EoE diagnosis was confirmed by symptoms, histology, and historical documentation of failed treatment on >8 weeks of high-dose proton pump inhibitor (PPI). A high-dose PPI was defined as administration of a total dose of 20 to 40 mg of a marketed PPI once or twice daily.
Subjects that participated in Part 1 studies were randomized and administered a treatment selected from: • (a) 1.5 mg HS: Placebo 30 minutes after breakfast and 1.5 mg HS (at bedtime); • (b) 1.5 mg BID: 1.5 mg 30 minutes after breakfast and at bedtime; total daily dose of 3 mg; • (c) 3 mg HS: Placebo 30 minutes after breakfast and 3 mg at bedtime; and • (d) 3 mg BID: 3.0 mg 30 minutes after breakfast and at bedtime; total daily dose of 6 mg.
During Part 1 (Induction, Day 1 to Week 14), subjects received their randomized treatment for 14 weeks. At Week 12, the subjects underwent a response assessment, including an oesophagogastroduodenoscopy (EGD) to assess endoscopic and histologic status. Histologic responders and non-responders (at Week 12) entered Part 2.
The primary endpoint was the histologic responder rate at Week 12 of Part 1, […] 5 to 6 biopsies from the proximal and distal oesophagus (approximately 3 each) where the HPF area was […] (40 magnification lens with a 22 mm ocular).

[2] = test system: subjects with strictures and/or rings and EoE; experiment: Clinical trial of FP ODT: dysphagia episodes (symptom response); assay type: in vivo, human; conditions: subgroup with strictures and/or Grade 2 rings at baseline, Week 12
Experimental: as §1
Subjects that participated in Part 1 studies were randomized and administered a treatment selected from: • (a) 1.5 mg HS: Placebo 30 minutes after breakfast and 1.5 mg HS (at bedtime); • (b) 1.5 mg BID: 1.5 mg 30 minutes after breakfast and at bedtime; total daily dose of 3 mg; • (c) 3 mg HS: Placebo 30 minutes after breakfast and 3 mg at bedtime; and • (d) 3 mg BID: 3.0 mg 30 minutes after breakfast and at bedtime; total daily dose of 6 mg. […]

[3] = all FP dosing groups, TOTAL (n = 43)

S-(fluoromethyl)-6α,9-difluoro-11β, 17-dihydroxy-16α-methyl-3-oxoandrosta-1, 4-diene-17β-carbothioate, 17-propanoate [FP]
Histology Responder Rate, % ([1]; FP 1.5 mg BID (n = 12)): 100% | Histology Responder Rate, % ([1]; FP 1.5 mg HS (n = 13)): 54% | Histology Responder Rate, % ([1]; FP 3 mg BID (n = 7)): 86% | Histology Responder Rate, % ([1]; FP 3 mg HS (n = 11)): 82% | Histology Responder Rate, % [1, 3]: 79% | Symptoms Responder Rate (≤50% reduction dysphagia episodes), % ([2]; FP 1.5 mg BID (n = 12)): 42% | Symptoms Responder Rate (≤50% reduction dysphagia episodes), % ([2]; FP 1.5 mg HS (n = 13)): 77% | Symptoms Responder Rate (≤50% reduction dysphagia episodes), % ([2]; FP 3 mg BID (n = 7)): 57% | Symptoms Responder Rate (≤50% reduction dysphagia episodes), % ([2]; FP 3 mg HS (n = 11)): 73% | Symptoms Responder Rate (≤50% reduction dysphagia episodes), % [2, 3]: 63%
